The text below walks through data of patent US10150728B2, “Alkylene derivatives” (Shionogi & Co., Ltd., priority 2013, dated 2018).

The target in this test is recombinant human ACC2 (Homo sapiens (Human), UniProt O00763). Briefly: Measurement of inhibitory activity on human ACC2 (MALDI-TOF MS, acetyl CoA to malonyl CoA conversion). It is filed as biochemical. Conditions: Tables 155-159. A digest of the protocol:
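His-tagged human ACC2 (residues 27–2458) from baculovirus-infected Sf-9 cells was preincubated 1 h in pH 7.4 HEPES-KOH buffer with MgCl2, 6-10 mM potassium citrate, glutathione and BSA. Substrate solution held 1 mM ATP, 0.8 mM acetyl CoA and 25-50 mM bicarbonate. After 1–3 h at room temperature, malonyl CoA/(malonyl+acetyl CoA) was read by negative-mode MALDI-TOF MS; citrate, bicarbonate and time varied by enzyme lot.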

Sequence of recombinant human ACC2 (O00763 27-2458): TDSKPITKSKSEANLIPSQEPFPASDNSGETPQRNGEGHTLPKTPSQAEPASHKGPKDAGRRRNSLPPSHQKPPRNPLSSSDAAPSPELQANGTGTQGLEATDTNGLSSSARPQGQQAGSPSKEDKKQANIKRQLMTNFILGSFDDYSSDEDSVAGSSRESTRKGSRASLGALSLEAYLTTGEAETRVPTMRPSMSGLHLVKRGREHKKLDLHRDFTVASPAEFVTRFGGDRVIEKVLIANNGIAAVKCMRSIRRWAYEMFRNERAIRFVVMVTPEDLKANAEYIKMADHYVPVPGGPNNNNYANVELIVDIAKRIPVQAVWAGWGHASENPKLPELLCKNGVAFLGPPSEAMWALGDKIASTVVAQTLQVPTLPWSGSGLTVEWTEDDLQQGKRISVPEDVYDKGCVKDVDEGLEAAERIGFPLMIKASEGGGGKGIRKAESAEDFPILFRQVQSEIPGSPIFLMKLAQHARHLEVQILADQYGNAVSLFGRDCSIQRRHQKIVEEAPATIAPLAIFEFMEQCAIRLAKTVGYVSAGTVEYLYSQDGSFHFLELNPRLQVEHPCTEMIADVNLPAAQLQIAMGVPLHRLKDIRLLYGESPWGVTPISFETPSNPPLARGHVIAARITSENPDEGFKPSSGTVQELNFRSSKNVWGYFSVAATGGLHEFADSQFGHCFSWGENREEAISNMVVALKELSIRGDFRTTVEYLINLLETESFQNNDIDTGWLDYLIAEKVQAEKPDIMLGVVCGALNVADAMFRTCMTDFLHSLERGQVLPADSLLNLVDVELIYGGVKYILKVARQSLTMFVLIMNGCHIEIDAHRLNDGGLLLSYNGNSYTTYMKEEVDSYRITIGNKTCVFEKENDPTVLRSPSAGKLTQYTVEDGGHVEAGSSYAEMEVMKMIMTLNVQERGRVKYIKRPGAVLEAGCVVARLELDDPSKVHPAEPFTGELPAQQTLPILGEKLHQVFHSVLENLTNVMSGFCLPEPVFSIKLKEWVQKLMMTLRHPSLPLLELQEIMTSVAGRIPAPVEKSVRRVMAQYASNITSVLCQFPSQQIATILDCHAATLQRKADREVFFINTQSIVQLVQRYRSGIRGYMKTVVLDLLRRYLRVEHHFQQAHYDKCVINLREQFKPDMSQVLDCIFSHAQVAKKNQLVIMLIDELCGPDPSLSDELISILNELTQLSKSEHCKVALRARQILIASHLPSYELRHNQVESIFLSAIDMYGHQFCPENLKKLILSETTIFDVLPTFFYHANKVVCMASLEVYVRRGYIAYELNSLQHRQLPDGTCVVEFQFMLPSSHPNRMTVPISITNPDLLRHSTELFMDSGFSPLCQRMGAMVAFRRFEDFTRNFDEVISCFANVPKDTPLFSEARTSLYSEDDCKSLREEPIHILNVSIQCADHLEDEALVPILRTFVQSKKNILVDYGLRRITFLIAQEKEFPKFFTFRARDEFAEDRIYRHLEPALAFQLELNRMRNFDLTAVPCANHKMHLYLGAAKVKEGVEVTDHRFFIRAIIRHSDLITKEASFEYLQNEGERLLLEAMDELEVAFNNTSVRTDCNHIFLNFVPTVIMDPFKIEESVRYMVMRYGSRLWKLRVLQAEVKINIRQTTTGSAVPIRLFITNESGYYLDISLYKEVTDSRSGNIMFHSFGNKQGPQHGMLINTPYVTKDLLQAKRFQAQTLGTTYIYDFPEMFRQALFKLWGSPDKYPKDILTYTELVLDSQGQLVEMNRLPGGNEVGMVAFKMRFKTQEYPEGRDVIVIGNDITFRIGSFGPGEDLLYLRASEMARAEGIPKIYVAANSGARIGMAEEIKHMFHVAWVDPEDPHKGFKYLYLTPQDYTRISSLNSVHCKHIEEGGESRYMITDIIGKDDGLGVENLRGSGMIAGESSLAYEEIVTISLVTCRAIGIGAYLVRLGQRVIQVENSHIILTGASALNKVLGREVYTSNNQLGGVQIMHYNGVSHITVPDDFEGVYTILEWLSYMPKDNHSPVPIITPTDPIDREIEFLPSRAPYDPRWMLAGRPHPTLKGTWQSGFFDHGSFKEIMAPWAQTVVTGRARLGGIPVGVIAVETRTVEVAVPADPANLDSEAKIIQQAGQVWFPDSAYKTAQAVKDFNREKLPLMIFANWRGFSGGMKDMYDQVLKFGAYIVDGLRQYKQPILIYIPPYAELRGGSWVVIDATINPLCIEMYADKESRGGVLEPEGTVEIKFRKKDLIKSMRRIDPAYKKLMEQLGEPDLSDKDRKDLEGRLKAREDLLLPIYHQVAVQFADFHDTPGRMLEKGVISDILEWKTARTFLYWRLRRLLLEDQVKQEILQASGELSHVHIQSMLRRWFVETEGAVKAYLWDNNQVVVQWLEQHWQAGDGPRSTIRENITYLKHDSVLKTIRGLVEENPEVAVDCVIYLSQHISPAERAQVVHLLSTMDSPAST

What is called IC50 is the concentration needed to halve the response being measured. Take `CCCOc1nc2ccc(OC[C@H]3C[C@H](OC[C@H](C)NC(C)=O)C3)nc2n1C` [Compound I-483]: the IC50 was 81 nM. Then `CC(=O)N[C@@H](C)CO[C@H]1C[C@H](COc2ccc3nc(OCC(F)F)n(C)c3n2)C1` [Compound I-484], with 204 nM; and `CC(=O)N[C@@H](C)CO[C@H]1C[C@H](COc2ccc3nc(OC[C@H](C)F)n(C)c3n2)C1` [Compound I-485], with 180 nM; and `CC(=O)N[C@@H](C)CO[C@H]1C[C@H](COc2cc(C)c3nc(OCC4CC4)n(C)c3n2)C1` [Compound I-486], with 724 nM. `CCOc1nc2ccc(OC[C@H]3C[C@H](OC[C@H](C)NC(C)=O)C3)c(F)c2n1C` [Compound I-487]: the IC50 was 363 nM. On to `CCOc1nc2cc(Cl)c(OC[C@H]3C[C@H](OC[C@H](C)NC(C)=O)C3)nc2n1C` [Compound I-488], for which the IC50 is 314 nM. Turning to `CC(=O)N[C@@H](C)CO[C@H]1C[C@H](COc2ccc3nc(OCC4CC4)n(C)c3c2)C1` [Compound I-489], the concentration for half-maximal inhibition (IC50) was determined as 843 nM. For the compound `CCOc1nc2ccc(OC[C@H]3C[C@H](OC[C@H](C)NC(C)=O)C3)c(Cl)c2n1C` [Compound I-490], the IC50 was 480 nM. Consider `CCOc1nc2ccc(O[C@H]3CC[C@H](OC[C@H](C)NC(C)=O)CC3)nc2n1C` [Compound I-491], for which the IC50 is 51 nM.

Take `CCOc1nc2ccc(O[C@H]3CC[C@H](OC[C@H](C)NC(C)=O)CC3)nc2n1CC` [Compound I-493]: the IC50 is 70 nM. Turning to `CC(=O)N[C@@H](C)CO[C@H]1CC[C@H](Oc2ccc3nc(OC(C)C)n(C)c3n2)CC1` [Compound I-494], the IC50 is 46 nM.

With `CC(=O)N[C@@H](C)CO[C@H]1CC[C@H](Oc2ccc3nc(OC4CC4)n(C)c3n2)CC1` [Compound I-495], the IC50 is 74 nM. Regarding `CC(=O)N[C@@H](C)CO[C@H]1CC[C@H](Oc2ccc3nc(OCC4CC4)n(C)c3n2)CC1` [Compound I-496], the IC50 worked out at 24 nM. With `CC(=O)N[C@@H](C)CO[C@H]1CC[C@H](Oc2ccc3nc(OC4CC(F)(F)C4)n(C)c3n2)CC1` [Compound I-497], the IC50 came to 15 nM.

On to `CC(=O)N[C@@H](C)CO[C@H]1CC[C@H](Oc2ccc3nc(OCC(F)(F)F)n(C)c3n2)CC1` [Compound I-498], for which the IC50 amounted to 13 nM. As for `CC(=O)N[C@@H](C)CO[C@H]1CC[C@H](Oc2ccc3nc(OCC(F)F)n(C)c3n2)CC1` [Compound I-499], the IC50 was found to be 40 nM.

As to `CC(=O)N[C@@H](C)CO[C@H]1CC[C@H](Oc2ccc3nc(OCC(C)(F)F)n(C)c3n2)CC1` [Compound I-500], the IC50 was determined as 21 nM. Turning to `CC(=O)N[C@@H](C)CO[C@H]1CC[C@H](Oc2ccc3nc(OCc4ccccc4)n(C)c3n2)CC1` [Compound I-501], the IC50 was 9 nM. `CC(=O)N[C@@H](C)CO[C@H]1CC[C@H](Oc2ccc3nc(OC4(C)CC4)n(C)c3n2)CC1` [Compound I-502]: the IC50 amounted to 62 nM. In the case of `CC(=O)N[C@@H](C)CO[C@H]1CC[C@H](Oc2ccc3nc(OCC4CC4(F)F)n(C)c3n2)CC1` (some centres unmarked) [Compound I-503], the IC50 turned out to be 24 nM. Take `CC(=O)N[C@@H](C)CO[C@H]1CC[C@H](Oc2ccc3nc(OCCC(F)(F)F)n(C)c3n2)CC1` [Compound I-504]: the IC50 was 18 nM. Take `CCCOc1nc2ccc(O[C@H]3CC[C@H](OC[C@H](C)NC(C)=O)CC3)nc2n1C` [Compound I-505]: the IC50 was determined as 12 nM. For `CCOc1nc2ccc(O[C@H]3CC[C@H](OC[C@H](C)NC(C)=O)CC3)cc2n1C` [Compound I-506], the IC50 was found to be 249 nM. In the case of `CCOc1nc2ccc(O[C@H]3CC[C@H](OC[C@H](C)NC(C)=O)CC3)c(F)c2n1C` [Compound I-507], the IC50 was 132 nM. Consider `CC(=O)N[C@@H](C)CO[C@H]1CC[C@H](Oc2cc(C)c3nc(Oc4ccc(F)cc4)n(C)c3n2)CC1` [Compound I-508], for which the half-maximal inhibitory concentration (IC50) came to 81 nM. Then `CC(=O)N[C@@H](C)CO[C@H]1CC[C@H](Oc2cc(C)c3nc(OCC4CC4)n(C)c3n2)CC1` [Compound I-509], with 225 nM; and `CCOc1nc2cc(Cl)c(O[C@H]3CC[C@H](OC[C@H](C)NC(C)=O)CC3)nc2n1C` [Compound I-510], with 28 nM.

In the case of `CC(=O)N[C@@H](C)CO[C@H]1CC[C@H](Oc2ccc3nc(OC4CCC(F)(F)CC4)n(C)c3n2)CC1` [Compound I-511], the IC50 worked out at 22 nM. Turning to `CC(=O)N[C@@H](C)CO[C@H]1CC[C@H](Oc2ccc3nc(CC4CC4)n(C)c3n2)CC1` [Compound I-512], the IC50 is 110 nM.

For the compound `CC(=O)N[C@@H](C)CO[C@H]1CC[C@H](Oc2ccc3nc(C(C)C)n(C)c3n2)CC1` [Compound I-513], the IC50 was 260 nM. Turning to `CC(=O)N[C@@H](C)CO[C@H]1CC[C@H](Oc2ccc3nc(CCC4CC4)n(C)c3n2)CC1` [Compound I-514], the IC50 was determined as 32 nM. As to `CC(=O)N[C@@H](C)CO[C@H]1CC[C@H](Oc2ccc3nc(CCC(F)(F)F)n(C)c3n2)CC1` [Compound I-515], the IC50 worked out at 41 nM.

Consider `CCOc1nc2cc(F)c(O[C@H]3CC[C@H](OC[C@H](C)NC(C)=O)CC3)nc2n1C` [Compound I-516], for which the IC50 was 27 nM.

In the case of `CCCOc1nc2cc(F)c(O[C@H]3CC[C@H](OC[C@H](C)NC(C)=O)CC3)nc2n1C` [Compound I-517], the IC50 is 14 nM. Then `CC(=O)N[C@@H](C)CO[C@H]1CC[C@H](Oc2nc3c(cc2F)nc(OC2CC(F)(F)C2)n3C)CC1` [Compound I-518], with 13 nM; and `CCOc1nc2ccc(OC[C@H]3C[C@H](OC[C@H](C)NC(C)=O)C3)nc2n1C` [Compound I-519], with 170 nM.

On to `CCOc1nc2ccc(OC[C@H]3C[C@@H](OC[C@H](C)NC(C)=O)C3)nc2n1C` [Compound I-520], for which the 50% inhibitory concentration (IC50) came to 315 nM. Regarding `CC(=O)N[C@@H](C)CO[C@H]1CC[C@H](Oc2ncc(-c3ncc(F)cn3)cc2F)CC1` [Compound I-521], the IC50 was found to be 20 nM. With `CC(=O)N[C@@H](C)CO[C@H]1CC[C@H](Oc2ncc(-c3ncc(F)cn3)cc2Cl)CC1` [Compound I-522], the IC50 is 8 nM.

Consider `CC(=O)N[C@@H](C)CO[C@H]1CC[C@H](Oc2ncc(-c3ncccn3)cc2F)CC1` [Compound I-523], for which the half-maximal inhibitory concentration (IC50) is 105 nM.

As to `CC(=O)N[C@@H](C)CO[C@H]1CC[C@H](Oc2ncc(-c3ncc(C#N)cn3)cc2F)CC1` [Compound I-524], the half-maximal inhibitory concentration (IC50) stood at 64 nM.

On to `CC(=O)N[C@@H](C)CO[C@H]1CC[C@H](Oc2ncc(-c3ncc(F)cn3)cc2C#N)CC1` [Compound I-525], for which the IC50 stood at 41 nM. Consider `CC(=O)N[C@@H](C)CO[C@H]1CC[C@H](Oc2ncc(-c3ncc(Cl)cn3)cc2F)CC1` [Compound I-526], for which the concentration for half-maximal inhibition (IC50) stood at 13 nM. Turning to `COc1cc(-c2ncc(F)cn2)cnc1O[C@H]1CC[C@H](OC[C@H](C)NC(C)=O)CC1` [Compound I-527], the IC50 came out at 158 nM.

With `COc1cnc(-c2cnc(O[C@H]3CC[C@H](OC[C@H](C)NC(C)=O)CC3)c(F)c2)nc1` [Compound I-528], the half-maximal inhibitory concentration (IC50) worked out at 61 nM. On to `CC(=O)N[C@@H](C)CO[C@H]1CC[C@H](Oc2ncc(-c3ncc(C(C)C)cn3)cc2F)CC1` [Compound I-529], for which the concentration for half-maximal inhibition (IC50) is 172 nM. As for `CC(=O)N[C@@H](C)CO[C@H]1CC[C@H](Oc2ncc(-c3ncc(C#N)cn3)cc2C#N)CC1` [Compound I-530], the IC50 was 196 nM.
